This note sets out measurements from PMC8655237 (Journal of Advanced Research, 2021).

Each structure is given as a SMILES string. Where a SMILES comes first, the peptide text is derived from it. [ ]: non-standard residue; d: D form. The star is where a group is joined. Sta = CC(C)C[C@H](N)[C@@H](O)CC(=O)O; Isovaleryl = CC(C)CC(=O)*

Test [1] concerns Ehrlich Ascites Carcinoma (EAC). Description: Ehrlich ascites carcinoma. Format: in vivo, Swiss albino mice. The settings on record: 20 mg/kg bw i.p., day 1-9.
The next test relates to LOX-5 mRNA. Kind of test: Real-time qPCR expression analysis. Particulars: GAPDH internal control. Format: cell-based, human. For orientation: Quantitative PCR measures a nucleic acid by following its amplification.
Another test has as its system CAT D mRNA. Kind of test: Real-time qPCR expression analysis. Format: cell-based, human. Particulars: GAPDH internal control.
For a further test, the system named is DHFR mRNA. Kind of test: Real-time qPCR expression analysis. Format: cell-based, human. The settings on record: GAPDH internal control.
The test system of test [2] is A431. Kind of test: SRB antiproliferative assay. The class given is cell-based. Particulars: Homo sapiens, A-431, 24 h, read-out: IC50 (SRB). In general terms: In SRB staining, fixed cells bind dye roughly in proportion to their protein.
In test [3] the test system is MDA-MB-231. Kind of test: MTT antiproliferative assay. Format: cell-based. Particulars: Homo sapiens, MDA-MB-231, 24 h, read-out: IC50 (MTT). For orientation: Formazan colour is commonly taken as a measure of viable cells.
Test [4] has as its system PC-3. Description: SRB antiproliferative assay. Format: cell-based. The settings on record: Homo sapiens, PC-3, 24 h, read-out: IC50 (SRB).
The test system of test [5] is MDA-MB-231. Kind of test: NRU antiproliferative assay. Format: cell-based. The settings on record: Homo sapiens, MDA-MB-231, 24 h, read-out: IC50 (NRU).
For test [6], the system named is A431. Kind of test: NRU antiproliferative assay. Format: cell-based. Particulars: Homo sapiens, A-431, 24 h, read-out: IC50 (NRU).
For test [7], the system named is PC-3. Description: NRU antiproliferative assay. Format: cell-based. The settings on record: Homo sapiens, PC-3, 24 h, read-out: IC50 (NRU).
The subject of test [8] is A431 cells. Description: Mitochondrial membrane potential. The class given is cell-based, human. The settings on record: A431, flow cytometry, 1 µM.
Test [9] has as its system PC-3. Description: MTT antiproliferative assay. Particulars: Homo sapiens, PC-3, 24 h, read-out: IC50 (MTT). The class given is cell-based.
In test [10] the test system is MDA-MB-231. Kind of test: SRB antiproliferative assay. The class given is cell-based. The settings on record: Homo sapiens, MDA-MB-231, 24 h, read-out: IC50 (SRB).
The subject of test [11] is A431 cells. Kind of test: DCFH-DA ROS assay. The settings on record: A431, flow cytometry, 1 µM. The class given is cell-based, human.
Test [12] relates to A431. Kind of test: MTT antiproliferative assay. Format: cell-based. The settings on record: Homo sapiens, A-431, 24 h, read-out: IC50 (MTT).
The test system of test [13] is A549. Kind of test: SRB antiproliferative assay. Particulars: Homo sapiens, A549, 24 h, read-out: IC50 (SRB). Format: cell-based.
The test system of test [14] is A549. Description: NRU antiproliferative assay. Particulars: Homo sapiens, A549, 24 h, read-out: IC50 (NRU). The class given is cell-based.
The target of a further test is tubulin protein (Sus scrofa, UniProt P02550+P02554). Description: Tubulin polymerization assay. Format: biochemical. Particulars: 10 μM.
For test [15], the system named is A549. Description: MTT antiproliferative assay. Format: cell-based. The settings on record: Homo sapiens, A549, 24 h, read-out: IC50 (MTT).
The subject of test [16] is Ornithine decarboxylase (ODC). Description: ODC assay, cell-free. Format: biochemical. The settings on record: read-out: IC50 ODC; cell free (In vitro).
The subject of the next test is ODC mRNA. Description: Real-time qPCR expression analysis. The class given is cell-based, human. The settings on record: GAPDH internal control.
Test [17] deals with hyaluronidase (HYAL). Kind of test: Hyaluronidase assay, cell-based. Further details: species or system human.
Another test relates to HYAL mRNA. Description: Real-time qPCR expression analysis. Format: cell-based, human. The settings on record: GAPDH internal control.
For test [18], the system named is hyaluronidase (HYAL). Kind of test: Hyaluronidase assay, cell-free. The settings on record: read-out: IC50 HYAL; cell free (In vitro). Format: biochemical.
Test [19] deals with K562. Description: SRB antiproliferative assay. The class given is cell-based. Particulars: Homo sapiens, K562, 24 h, read-out: IC50 (SRB).
The test system of test [20] is K562. Kind of test: MTT antiproliferative assay. Particulars: Homo sapiens, K562, 24 h, read-out: IC50 (MTT). Format: cell-based.
In test [21] the test system is FaDu. Kind of test: MTT antiproliferative assay. Format: cell-based. The settings on record: Homo sapiens, 24 h, read-out: IC50 (MTT).
The subject of test [22] is FaDu. Description: NRU antiproliferative assay. The class given is cell-based. The settings on record: Homo sapiens, 24 h, read-out: IC50 (NRU).
Test [23] deals with K562. Description: NRU antiproliferative assay. The class given is cell-based. The settings on record: Homo sapiens, K562, 24 h, read-out: IC50 (NRU).
In test [24] the test system is FaDu. Kind of test: SRB antiproliferative assay. Format: cell-based. The settings on record: Homo sapiens, 24 h, read-out: IC50 (SRB).
Where [25] appears, read: MDA-MB-231, with respect to control.

Sequence of tubulin protein (P02550 whole entry): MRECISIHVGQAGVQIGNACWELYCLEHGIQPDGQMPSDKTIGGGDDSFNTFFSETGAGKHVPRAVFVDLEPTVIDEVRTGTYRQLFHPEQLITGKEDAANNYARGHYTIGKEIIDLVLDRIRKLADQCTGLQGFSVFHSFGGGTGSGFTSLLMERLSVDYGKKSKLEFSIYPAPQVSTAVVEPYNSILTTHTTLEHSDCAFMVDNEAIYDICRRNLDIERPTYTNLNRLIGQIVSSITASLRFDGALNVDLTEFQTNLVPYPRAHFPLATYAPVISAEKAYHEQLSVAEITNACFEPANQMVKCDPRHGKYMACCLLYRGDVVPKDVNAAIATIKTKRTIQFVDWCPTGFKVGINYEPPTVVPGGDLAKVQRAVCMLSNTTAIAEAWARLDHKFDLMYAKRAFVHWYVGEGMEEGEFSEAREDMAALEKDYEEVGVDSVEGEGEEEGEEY
Sequence of tubulin protein (P02554 whole entry): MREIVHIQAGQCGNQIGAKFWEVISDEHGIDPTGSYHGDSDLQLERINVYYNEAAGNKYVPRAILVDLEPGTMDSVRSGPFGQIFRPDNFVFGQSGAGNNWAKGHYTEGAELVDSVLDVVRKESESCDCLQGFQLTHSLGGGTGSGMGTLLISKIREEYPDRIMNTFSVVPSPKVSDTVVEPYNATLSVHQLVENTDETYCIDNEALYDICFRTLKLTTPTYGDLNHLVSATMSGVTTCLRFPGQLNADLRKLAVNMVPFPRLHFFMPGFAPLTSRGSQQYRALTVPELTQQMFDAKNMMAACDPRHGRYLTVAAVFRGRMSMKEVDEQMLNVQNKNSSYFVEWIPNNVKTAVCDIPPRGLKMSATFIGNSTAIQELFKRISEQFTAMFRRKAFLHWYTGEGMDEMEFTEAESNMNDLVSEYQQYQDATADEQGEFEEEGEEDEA

With `O=c1[nH]cc(F)c(=O)[nH]1` [5-fluorouracil, reference compound], in test [1], the “reduction of EAC tumor formation (tumor growth inhibition)” value was 98.39%.

Consider `CC(c1cc2ccccc2s1)N(O)C(N)=O` (stereo not drawn) [Zileuton], for which the “LOX-5 mRNA expression level” value with LOX-5 mRNA (A431, with respect to control) is 3.10 fold change; with LOX-5 mRNA (FaDu, with respect to control), 2.96 fold change; with LOX-5 mRNA (K562, with respect to control), 3.01 fold change; with LOX-5 mRNA (setting [25]), 3.09 fold change; in the test on LOX-5 mRNA (PC-3, with respect to control) it was 2.22 fold change.

Consider `CC(C)CC(=O)N[C@H](C(=O)N[C@H](C(=O)N[C@@H](CC(C)C)[C@@H](O)CC(=O)N[C@@H](C)C(=O)N[C@@H](CC(C)C)[C@@H](O)CC(=O)O)C(C)C)C(C)C` [PEP A, pepstatin A, reference compound] (Isovaleryl-VV[Sta]A[Sta]-OH), for which the “CAT D mRNA expression level” value in the test on CAT D mRNA (A431, with respect to control) is recorded as 1.61 fold change; in the test with CAT D mRNA (A549, with respect to control), 2.77 fold change; with CAT D mRNA (FaDu, with respect to control) it was 2.22 fold change; in the test on CAT D mRNA (K562, with respect to control), 3.12 fold change; in the test with CAT D mRNA (setting [25]), 1.81 fold change; with CAT D mRNA (PC-3, with respect to control), 1.66 fold change.

`CN(Cc1cnc2nc(N)nc(N)c2n1)c1ccc(C(=O)N[C@@H](CCC(=O)O)C(=O)O)cc1` [MTX, Methotrexate]: the “DHFR mRNA expression level” value in the test on DHFR mRNA (A431, with respect to control) was 2.92 fold change; with DHFR mRNA (A549, with respect to control) it was 2.20 fold change; in the test with DHFR mRNA (FaDu, with respect to control), 2.82 fold change; in the test with DHFR mRNA (K562, with respect to control), 2.20 fold change; in the test on DHFR mRNA (setting [25]), 2.59 fold change; in the test on DHFR mRNA (PC-3, with respect to control), 2.0 fold change.

In general, IC50 refers to the point on the concentration scale where inhibition reaches its midpoint. `COc1cccc2c1C(=O)c1c(O)c3c(c(O)c1C2=O)C[C@@](O)(C(=O)CO)C[C@@H]3O[C@H]1C[C@H](N)[C@H](O)[C@H](C)O1` [Doxorubicin, reference compound]: the IC50 turned out to be 1.21 ± 0.03 µM in the test with A431 [2]; 1.55 ± 0.95 µM in the test with MDA-MB-231 [3]; 3 ± 1.16 µM with PC-3 [4]; 3.64 ± 1.8 µM in the test on MDA-MB-231 [5]; 1.15 ± 0.37 µM in the test on A431 [6]; 1.2 ± 0.36 µM with PC-3 [7]. The half-inhibitory concentration (IC50) worked out at 2.24 ± 1.56 µM in the test with PC-3 [9], 1.51 ± 0.86 µM with MDA-MB-231 [10] and 1.6 ± 0.09 µM with A431 [12]. Moreover, the “total of FITC mean (Rh123)” value in the test with A431 cells [8] was 2735 ± 5.65. Moreover, the “total mean of DCF positive cells” value in the test with A431 cells [11] is 370 ± 14.14.

Regarding `CC(=O)O[C@H]1C(=O)[C@@]2(C)[C@H]([C@H](OC(=O)c3ccccc3)[C@]3(O)C[C@H](OC(=O)[C@H](O)[C@@H](NC(=O)c4ccccc4)c4ccccc4)C(C)=C1C3(C)C)[C@]1(OC(C)=O)CO[C@@H]1C[C@@H]2O` [Taxol, paclitaxel], the IC50 in the test with A549 [13] was determined as 1.15 ± 0.16 µM; with A549 [14], 1.18 ± 0.13 µM; with A549 [15] it was 2.1 ± 0.81 µM. Further, the “effect on tubulin polymerization” value on tubulin protein is recorded as “stabilizes the tubulin polymerization”.

As for `NCCC[C@](N)(C(=O)O)C(F)F` [DFMO, α-difluoromethylornithine], in test [16], the IC50 turned out to be 7.54 ± 5.8 µM. For the same compound, the “ODC mRNA expression level” value amounted to 5.42 fold change with ODC mRNA (A431, with respect to control); 4.24 fold change in the test on ODC mRNA (A549, with respect to control); 2.57 fold change in the test on ODC mRNA (FaDu, with respect to control); 4.07 fold change in the test on ODC mRNA (K562, with respect to control); 3.67 fold change in the test on ODC mRNA (setting [25]); 6.55 fold change in the test on ODC mRNA (PC-3, with respect to control).

With `CC(=O)N[C@@H](CS)C(=O)O` [NAC, N-acetyl cysteine], the concentration for half-maximal inhibition (IC50) was found to be 8.2 ± 1.42 µM in the test with hyaluronidase (HYAL) [17] (read-out: IC50 HYAL, A431); 13.7 ± 4.37 µM with hyaluronidase (HYAL) [17] (read-out: IC50 HYAL, A549); 7.44 ± 0.67 µM in the test on hyaluronidase (HYAL) [17] (read-out: IC50 HYAL, FaDu); 7.56 ± 0.59 µM in the test with hyaluronidase (HYAL) [17] (read-out: IC50 HYAL, K562); 14.6 ± 3.07 µM in the test on hyaluronidase (HYAL) [17] (read-out: IC50 HYAL, MDA-MB-231); 9.44 ± 3.13 µM with hyaluronidase (HYAL) [17] (read-out: IC50 HYAL, PC-3). Further, in the test on hyaluronidase (HYAL) [18], the 50% inhibitory concentration (IC50) was 5.92 ± 0.7 µM. Also, the “HYAL mRNA expression level” value with HYAL mRNA (A431, with respect to control) stood at 4.50 fold change; with HYAL mRNA (A549, with respect to control), 4.09 fold change; with HYAL mRNA (FaDu, with respect to control), 6.66 fold change; in the test on HYAL mRNA (K562, with respect to control), 8.98 fold change; with HYAL mRNA (setting [25]), 6.87 fold change; in the test with HYAL mRNA (PC-3, with respect to control), 5.64 fold change.

With `COc1cc([C@@H]2c3cc4c(cc3[C@H](O)[C@H]3COC(=O)[C@H]23)OCO4)cc(OC)c1OC` [Podophyllotoxin], the IC50 in the test with K562 [19] is 50.26 ± 0.45 µM; with K562 [20], 46.4 ± 4.27 µM; in the test on FaDu [21], 16.2 ± 1.04 µM; in the test on FaDu [22] it was 25.3 ± 0.28 µM; with K562 [23] it was 32.3 ± 3.11 µM; in the test with FaDu [24], 34.1 ± 1.79 µM. Besides, on tubulin protein, the “effect on tubulin polymerization” value was “inhibit the polymerization of α and β tubulin”.
